# Measured values reported in paper PMC5484485, “In vitro and in vivo effects of kisspeptin antagonists p234, p271, p354, and p356 on GPR54 activation” (PLoS ONE, 2017).
# Square brackets hold non-standard residues; d marks the D form. Ends that are not written are not given here.
# Columns and labels:
# plasma LH concentration [1] = test: Plasma LH in anestrous Beagle bitches during antagonist infusion and after cKP10 bolus; type: in vivo, dog; conditions: n = 6
# From the text: Thirteen adult anestrous Beagle bitches were used for this study. Six dogs with a median age of 89 months (range 43–122 months) were used as control group, receiving cKP10 without an antagonist. Eight dogs with a median age of 52 months (range 31–116 months) were used for the antagonist experiments. One dog was first used in the control group and 12 months later for the antagonist experiments. Of the eight dogs used for the antagonist experiments, four received p271, p354, and p356. In two of the eight dogs both p354 and p356 were tested, while in the remaining two dogs only p271 was tested, in order to test every antagonist in 6 dogs. The time between testing of different kisspeptin antagonists was at least 5 days (range 5–15 days) to ensure that there were no peptide residues. Kisspeptin antagonist p234 per se was not tested in vivo because p271 is in fact p234 with a penetratin tag to enhance passage across the blood-brain barrier, as has been described for use with peripheral administration.
# Kisspeptin antagonists (50 μg/kg/h) were administered continuously for three hours via a catheter in the cephalic vein. Two hours after the start of the infusion, a single bolus of cKP10 (0.5 μg/kg) was administered intravenously. Blood samples were collected from the jugular vein by venipuncture at -40 min and 0 min before the antagonist infusion, and then every 30 min for two hours. After the administration of cKP10, blood samples were collected at 10, 20, 40, and 60 min (i.e., 130, 140, 160, and 180 min after the start of the antagonist infusion).
# As a control, KP stimulation tests (without the administration of a kisspeptin antagonist) were performed in six dogs. Blood samples were collected from the jugular vein by venipuncture at -40 min and 0 min before, and then at 10, 20, 40, and 60 min after administration of cKP10 (0.5 μg/kg). Plasma LH concentrations were measured in all blood samples.
# Plasma LH concentrations were measured with a heterologous radioimmunoassay validated for the dog, as described previously. The intra- and interassay CVs for values above 0.5 μg/l were 2.3 and 10.5%, respectively, and the limit of quantitation was 0.3 μg/l.
# In both groups of dogs (experimental and control), the basal plasma LH concentration was calculated for each dog as the mean of the values at –40 and 0 min before cKP10 or antagonist administration. All LH values that exceeded the mean of all basal samples plus 3 SD were attributed to pulsatile secretion and were treated as outliers and excluded from statistical analysis. Log transformation of plasma LH concentrations was used because data were not normally distributed. A linear mixed model was used to analyze differences in plasma LH concentrations before and after KP10, with or without a kisspeptin antagonist (group effects: p271, p354, p356, and controls), with Bonferroni correction. P<0.05 was considered significant.
# CHEM1-GPR54 cells = biological target: T1, CHEM1-GPR54 cells (Homo sapiens, UniProt Q969F8); test: Preliminary calcium flux assay with adherent CHEM1-GPR54 cells (unpublished); type: cell-based; conditions: too few repeats for statistics
# T1 construct: host or cells: rat hematopoietic CHEM1 cells expressing endogenous Galpha15
# plasma LH concentration [2] = test: Other studies with p271 up to 600 μg/kg/h in castrated male dogs and anestrous bitches (unpublished); type: in vivo, dog; conditions: doses of up to 600 μg/kg/h, unpublished data
# Procedure: These doses also had no effect on plasma LH concentration in the castrated male dogs or on the KP10-induced LH response in the female dogs (unpublished data). It is therefore unlikely that the lack of antagonistic effects is related to the dose of 50 μg/kg/h used in the present study.
# plasma LH concentration [3] = conditions: bitches; anestrus, follicular phase, two stages of luteal phase; cited from earlier work
# From the text: Sensitivity to exogenous KP10 differs according to the stage of the reproductive cycle, as has been shown in rats, ewes, bitches, and women. In the bitch, the highest KP10-induced LH response was obtained during anestrus and the lowest was during the follicular phase. It is possible that the effects of a KP antagonist also differ among the cycle stages.
# circulating LH / puberty = conditions: cited from earlier work
# Procedure: The development of kisspeptin antagonists contributed to an improved understanding of the role of kisspeptin in the reproductive system. Roseweir et al. developed several KP10 analogues and tested their effect on inositol phosphate (IP) release in Chinese hamster ovarian (CHO) cells stably expressing the human GPR54. […] The kisspeptin antagonists were administered intravenously in a dose of 50 μg/kg/h, and had no effect on either the basal plasma LH concentration during the continuous administration or on the KP10-induced LH response. These findings are in line with a previous study in female dogs. […] Adult male rats received an intrape ...
# LH pulses = conditions: intact and ovariectomized ewes; continuous intracerebroventricular; cited from earlier work
# human GPR54 = human GPR54 (Homo sapiens, UniProt Q969F8); test: Flow cytometric calcium flux assay, response to peptide alone (agonist / intrinsic activity); type: cell-based; design: host or cells: rat hematopoietic CHEM1 cells expressing endogenous Galpha15; conditions: any tested concentration, 10^-13 to 10^-5 M; n = 3
# Procedure: In vitro analyses of the effects of kisspeptin and kisspeptin antagonists, were performed using HT[…] cells (rat hematopoietic CHEM1 cells expressing endogenous Gα15 and, stably expressing the human GPR54 receptor (Millipore BV, the Netherlands), CHEM1-GPR54. Cells were counted and suspended in HBSS+++ at a concentration of 5*10^6 cells/ml. To load the cells with the fluorescent dye ester they were incubated in HBSS+++ adjusted to a concentration of 2 μM Fluo-3 AM (Molecular Probes, Life Technologies, the Netherlands) for 1h at 37°C under agitation in the dark. After incubation, the cells were washed by adding HBSS+++ to a volume of 10 ml followed by centrifugation (5 min, 150 x g) to remove excess of Fluo-3AM. […] Thereafter the tube was removed briefly and 25 μl peptide (see below) was added, after which aspiration and analysis continued. For statistical analyses fluorescent data recorded during the time interval 30-60 seconds after initiation of measurement were used. […] Experiments were performed 3 times. Representative flow cytometry results are depicted in Fig 1. […] We then assessed whether these antagonists could compete with KP10 for its receptor. […] For this purpose 25 μl quantities of the antagonists were added to 200 μl of Fluo-3 AM labelled cells (10^6 cells/ml) and incubated for 15 min. […] Peptides p354 and p356 were tested three times with both human and canine KP10; while peptides p234 and p271 were tested three times with human KP10 and once with canine KP10. […] A multivariate general linear model was set up to analyze differences in calcium response between the different concentrations, with Dunnett's test as a post hoc procedure for the antagonists and Bonferroni's test for the agonists.
# [4] = antagonist 50 μg/kg/h iv, cKP10 0.5 μg/kg iv
# [5] = adult male rats, 5 nmol ip every hour for three hours
# Chain of human GPR54 (Q969F8 whole entry): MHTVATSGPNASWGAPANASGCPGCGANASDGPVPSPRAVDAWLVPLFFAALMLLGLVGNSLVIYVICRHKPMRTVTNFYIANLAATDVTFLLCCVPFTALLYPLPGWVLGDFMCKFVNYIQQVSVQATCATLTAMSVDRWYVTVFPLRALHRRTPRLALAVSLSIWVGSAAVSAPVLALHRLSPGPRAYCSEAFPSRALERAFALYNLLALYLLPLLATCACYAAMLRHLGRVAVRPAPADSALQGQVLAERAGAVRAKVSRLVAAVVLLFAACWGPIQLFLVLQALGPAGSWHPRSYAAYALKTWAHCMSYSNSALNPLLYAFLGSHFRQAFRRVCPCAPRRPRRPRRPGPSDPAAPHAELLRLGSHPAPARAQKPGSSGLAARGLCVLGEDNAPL
# T1 sequence (Q969F8 whole entry): as above
substance,measurement,setting,value
"RRMKWKKY[dA]NWNGFG[dW]RF-NH2 [p271, p234 with a penetratin tag]","Median (and range) plasma LH, t = 30",plasma LH concentration [1]; 30 min of antagonist infusion 50 μg/kg/h iv,3.9 (2.2–5.4) μg/L
same,"Median (and range) plasma LH, t = 60",plasma LH concentration [1]; 60 min of antagonist infusion 50 μg/kg/h iv,5.2 (2.5–10.0) μg/L
same,"Median (and range) plasma LH, t = 90",plasma LH concentration [1]; 90 min of antagonist infusion 50 μg/kg/h iv,4.5 (2.8–6.3) μg/L
same,"Median (and range) plasma LH, t = 120","plasma LH concentration [1]; 120 min of antagonist infusion 50 μg/kg/h iv, before cKP10",6.0 (3.2–7.5) μg/L
same,median maximum increment in plasma LH concentration after cKP10 during antagonist administration,plasma LH concentration [1]; [4],12.2 µg/L
same,range of maximum increment in plasma LH concentration after cKP10 during antagonist administration,plasma LH concentration [1]; [4],4.7 to 18.2 µg/L
same,"Median (and range) plasma LH, t = 130 / t = 10*","plasma LH concentration [1]; antagonist infusion 50 μg/kg/h iv, 10 min after cKP10 0.5 μg/kg iv",16.2 (9.3–24.1) μg/L
same,"Median (and range) plasma LH, t = 140 / t = 20*","plasma LH concentration [1]; antagonist infusion 50 μg/kg/h iv, 20 min after cKP10 0.5 μg/kg iv",10.0 (5.7–12.6) μg/L
same,"Median (and range) plasma LH, t = 160 / t = 40*","plasma LH concentration [1]; antagonist infusion 50 μg/kg/h iv, 40 min after cKP10 0.5 μg/kg iv",6.4 (4.8–8.8) μg/L
same,"Median (and range) plasma LH, t = 180 / t = 60*","plasma LH concentration [1]; antagonist infusion 50 μg/kg/h iv, 60 min after cKP10 0.5 μg/kg iv",4.8 (3.5–7.3) μg/L
same,"Median (and range) plasma LH, Basal",plasma LH concentration [1]; before antagonist infusion (mean of -40 and 0 min per dog),4.0 (2.9–5.9) μg/L
same,effect on basal plasma LH concentration,"plasma LH concentration [1]; continuous iv 50 μg/kg/h, anestrous bitches",did not cause significant alterations
same,"inhibition of KP10-induced calcium response, adherent cells",CHEM1-GPR54 cells,could not be inhibited
same,effect on KP10-induced LH response in female dogs,plasma LH concentration [2]; anestrous bitches,had no effect
same,effect on plasma LH concentration in castrated male dogs,plasma LH concentration [2],had no effect
same,"effect on basal plasma LH concentration, different stages of estrous cycle",plasma LH concentration [3],did not result in a decrease
same,"KP10-induced LH response, KP10 intracerebroventricular",circulating LH / puberty; [5],blunted
same,"KP10-induced LH response, KP10 intraperitoneal",circulating LH / puberty; [5],absent
same,effect on post-castration rise in circulating LH,"circulating LH / puberty; male rats, repeated peripheral administration",could prevent the post-castration rise in circulating LH
same,effect on KP10-induced rise in plasma LH,"circulating LH / puberty; mice and rats, repeated peripheral administration",blunted the KP10-induced rise in plasma LH concentration
same,effect on LH pulses,LH pulses,inhibited LH pulses
same,intrinsic calcium response,human GPR54,no significant intrinsic calcium response
